From paper PMC4848641, “The Scorpion Toxin Analogue BmKTX-D33H as a Potential Kv1.3 Channel-Selective Immunomodulator for Autoimmune Diseases” (Toxins, 2016)
“Also recorded” adds a separate entry of the source. Where a SMILES comes first, the peptide text is derived from it. Bridges are numbered along the chain shown (N, C = ends).

Assays:
KCa3.1 = experiment: Whole-cell patch-clamp, KCa3.1 channel currents (transfected HEK293 cells); assay type: cell-based; settings: micromolar concentration (1 μM), pH 7.4
Procedure: (§1) Whole cell patch-clamp recordings of Kv1.3 channel were obtained from human T cells. Electrophysiological experiments of other assayed potassium channels were performed on HEK293 cells transfected with cDNA encoding Kv1.1, Kv1.2, Kv1.3, Kv7.1, Kv11.1, KCa2.2, KCa2.3, and KCa3.1 channels using TurboFect Reagent (ThermoSci., Waltham, MA, USA). The cDNAs were subcloned into the Xho I/Bam HI sites of pIRES2-EGFP, a bicistronic expression vector (Clontech, Mountain View, CA, USA) coexpressed with enhanced GFP. The constructs were verified by DNA sequencing. Currents were recorded on eGFP-expression positive cells one to three days post-transfection. Electrophysiological experiments were performed using protocols according to previously published references. Cells were bathed with mammalian Ringer’s solution: 5 mM KCl, 140 mM NaCl, 2 mM CaCl2, 1 mM MgCl2, […], 10 mM D-glucose (adjusted to pH 7.4 with NaOH). A multichannel microperfusion system MPS-2 (INBIO Inc, Wuhan, China) was used to exchange the external recording bath solution. […] Membrane currents were measured with an EPC 10 patch clamp amplifier (HEKA Elektronik, Lambrecht/Pfalz, Germany) interfaced to a computer running acquisition and analysis software (Pulse, v8.80, HEKA Elektronik, Lambrecht/Pfalz, Germany). […]

Kv1.1 = experiment: Whole-cell patch-clamp, Kv1.1 channel currents (transfected HEK293 cells); assay type: cell-based; settings: 1 μM, −80 mV to +50 mV, pH 7.4, means ± S.E. of at least three experiments
Procedure: as §1

Kv11.1 = assay type: cell-based; settings: micromolar concentration (1 μM); HEK293 cells, patch-clamp, pH 7.4
Procedure: as §1

Kv1.3 channel [1] = settings: ref [29], cited from earlier work
Description: The venomous scorpions, which have lived on earth for over 400 million years, rely on their venoms for their efficient defense and capture strategy. During their molecular evolution, scorpions produced hundreds of peptide-based toxins in their venoms, typically targeting ion channels with a high degree of molecular diversity. Accordingly, scorpion venoms have been considered as invaluable resources of ion channel inhibitors. […] Because ADWX-1 is a potent blocker of the […] channel (IC50 value of 0.6 nM), we further investigated the pharmacological profile of BmKTX-D33H. || The most remarkable feature of BmKTX-D33H is its sought-after selectivity towards the Kv1.3 channel. Indeed, improving the selectivity of scorpion toxins (especially Kv1.1 versus Kv1.3 channel subtypes) still remains a serious challenge. […] For ADWX-1 ...

[2] = test system: Kv1.3 channels on the freshly isolated CD3^+ T cells; experiment: Whole-cell patch-clamp, Kv1.3 currents in freshly isolated human CD3^+ T cells; assay type: cell-based; settings: pH 7.4, means ± S.E. of at least three experiments
Procedure: as §1

Jurkat cells [3] = assay type: cell-based; settings: 48 h post-stimulation with 100 ng/mL PMA and 1 mM Ionmycin; CellTiter 96 AQueous One Solution, 490 nm
Description: (§2) Jurkat E6-1 cells were obtained from the American Tissue Culture Collection (ATCC, Manassas, VA, USA) and cultured in RPMI-1640 supplied with 10% fetal bovine serum (FBS).
(§3) Peripheral blood (PB) obtained from four healthy volunteers was approved by the Ethics Committee of the College of Life Sciences in Wuhan University (Permit number: ECCLS20120076, approved at 3 May 2012). Ficoll gradients were used to isolate mononuclear cells from PB. The CD3^+ T cells were then purified using EasySep Isolation Kit (StemCell Technologies, Vancouver, BC, Canada), and cultured at density of 5 × 10^5 cells per cm^2 in RPMI-1640 medium supplemented with 2 mM glutamine, and 10% FBS. All the T-cells were cultured at a temperature of 37 °C in a humidified 95% air and 5% CO2 atmosphere. The Jurkat cells were stimulated with 100 ng/ml phorbol ester (PMA) (Sigma-Aldrich, Munich, Germany) and 1 mM Ionmycin (ION) (Sigma-Aldrich, Munich, Germany). […]
(§4) The Jurkat cells or peripheral blood CD3^+ cells were seeded in round-bottom plates (Corning-costar) at 5 × 10^5 cells per cm^2. […] The cells were cultured for 48 h, and cell proliferation was measured using CellTiter 96 AQueous One Solution Cell Proliferation Assay Kit (Promega, Madison, WI, USA) in accordance with the manufacturer’s guide. Absorbance was read at a wavelength of 490 nm.

CD3^+ T cells [4] = settings: pre-incubation for 1 h before activation; anti-CD3/CD28 beads; ELISA
Procedure: as §3, with “atmosphere.” for “atmosphere. The Jurkat cells were stimulated with 100 ng/ml phorbol ester (PMA) (Sigma-Aldrich, Munich, Germany) and 1 mM Ionmycin (ION) (Sigma-Aldrich, Munich, Germany).”
as §4
(§5) The IL-2, IFN-γ, and TNF-α levels in supernatants of stimulated cells were measured with ELISA kit (Dakewei, Shenzhen, China) following the manufacturer’s protocol. Absorbance was measured with an automatic plate reader at a wavelength of 450 nm with reference at 630 nm.

Jurkat cells [5] = test system: Jurkat cells
Description: as §2
as §3, with “FBS.” for “FBS. All the T-cells were cultured at a temperature of 37 °C in a humidified 95% air and 5% CO2 atmosphere. The Jurkat cells were stimulated with 100 ng/ml phorbol ester (PMA) (Sigma-Aldrich, Munich, Germany) and 1 mM Ionmycin (ION) (Sigma-Aldrich, Munich, Germany).”
as §4, §5

Kv1.7 = experiment: Whole-cell patch-clamp, Kv1.7 (Kv7.1 in legend and methods) channel currents (transfected HEK293 cells); assay type: cell-based; settings: micromolar concentration (1 μM), pH 7.4
Procedure: as §1

CD3^+ T cells [6] = assay type: cell-based; settings: human CD3^+ T cells, anti-CD3/CD28 beads, 48 h; CellTiter 96 AQueous One Solution, 490 nm
Procedure: Peripheral blood (PB) obtained from four healthy volunteers was approved by the Ethics Committee of the College of Life Sciences in Wuhan University (Permit number: ECCLS20120076, approved at 3 May 2012). Ficoll gradients were used to isolate mononuclear cells from PB. The CD3^+ T cells were then purified using EasySep Isolation Kit (StemCell Technologies, Vancouver, BC, Canada), and cultured at density of 5 × 10^5 cells per cm^2 in RPMI-1640 medium supplemented with 2 mM glutamine, and 10% FBS. All the T-cells were cultured at a temperature of 37 °C in a humidified 95% air and 5% CO2 atmosphere. The Jurkat cells were stimulated with 100 ng/ml phorbol ester (PMA) (Sigma-Aldrich, Munich, Germany) and […] Ionmycin (ION) (Sigma-Aldrich, Munich, Germany). The CD3^+ T cells were stimulated with anti-CD3/CD28 antibodies beads (Life Technologies, Waltham, MA, USA). BmKTX-D33H (ranged from 0.1 to 100 nM) was added for 1 h prior to stimulation.
as §4

Lewis rats = experiment: Active delayed-type hypersensitivity (DTH), ear swelling; assay type: in vivo; settings: female Lewis rats; 100 μg/kg, single subcutaneous injection at ovalbumin challenge; 4, 6, and 24 h after challenge; vs vehicle control
Procedure: The animal trial was approved by the Animal Use and Care Committee of the Wuhan University. Female Lewis rats (9–10 weeks of age) were purchased from Charles River Laboratories and housed under pathogen-free conditions. Active DTH was induced as describe previously by immunizing rats against antigen of ovalbumin (Sigma-Aldrich, Munich, Germany) emulsified with complete Freund’s adjuvant (Sigma-Aldrich, Munich, Germany). The emulsion was injected subcutaneously into Lewis rats in order to prime the immune system and develop memory T cells. Seven days later, the rats were challenged again with ovalbumin (20 μg in 20 μL of saline solution) in the pinna of one ear (challenged ear). The other side of ear received saline solution as challenge control. Rats in control group received a single subcutaneous injection of 0.5 mL vehicle (saline solution) in the scruff of the neck, at the time of second-challenge. Whereas, rats in drug-treatment group received 100 μg/kg BmKTX-D33H (in 0.5 mL vehicle) administrated using the same method. The change for thickness of ear (at 4, 6, and 24 h post-challenge) was measured as an indication of the inflammatory reaction and DTH severity.

Kv1.2 = experiment: Whole-cell patch-clamp, Kv1.2 channel currents (transfected HEK293 cells); assay type: cell-based; settings: micromolar concentration (1 μM), pH 7.4
Procedure: as §1

Kv1.3 channel [7] = experiment: Selectivity towards the Kv1.3 channel over other K^+ channels; assay type: cell-based; settings: versus Kv1.1, Kv1.2, Kv1.7 (Kv7.1), Kv11.1, KCa2.2, KCa2.3, and KCa3.1
Procedure: as §1

KCa2.3 = experiment: Whole-cell patch-clamp, KCa2.3 channel currents (transfected HEK293 cells); assay type: cell-based; settings: micromolar concentration (1 μM), pH 7.4
Procedure: as §1

Kv1.3 channels = experiment: Whole-cell patch-clamp, Kv1.3 channel currents; assay type: cell-based; settings: 10 pM, 200 ms depolarizing steps from holding potential −80 mV to +50 mV, pH 7.4, means ± S.E. of at least three experiments
Procedure: as §1

KCa2.2 = experiment: Whole-cell patch-clamp, KCa2.2 channel currents (transfected HEK293 cells); assay type: cell-based; settings: micromolar concentration (1 μM), pH 7.4
Procedure: as §1

For CC[C@H](C)[C@H](NC(=O)CNC(=O)[C@@H](N)C(C)C)C(=O)N[C@@H](CC(N)=O)C(=O)N[C@H](C(=O)N[C@@H](CCCCN)C(=O)N[C@H]1CSSC[C@@H]2NC(=O)[C@H](CCCCN)NC(=O)CNC(=O)[C@H](Cc3ccccc3)NC(=O)[C@H](CCCNC(=N)N)NC(=O)[C@H](CCSC)NC(=O)CNC(=O)[C@H](C)NC(=O)[C@H](CC(=O)O)NC(=O)[C@H](CCCCN)NC(=O)[C@@H]3CSSC[C@@H](C(=O)N[C@H](C(=O)N4CCC[C@H]4C(=O)N[C@@H](CCCCN)C(=O)O)[C@@H](C)O)NC(=O)[C@H](Cc4c[nH]cn4)NC(=O)[C@H](CSSC[C@H](NC(=O)[C@H](CCC(N)=O)NC(=O)CNC(=O)[C@H](CO)NC(=O)[C@H](Cc4c[nH]cn4)NC(=O)[C@H](CCCCN)NC1=O)C(=O)N[C@@H](CC(C)C)C(=O)N[C@@H](CCCCN)C(=O)N1CCC[C@H]1C(=O)N3)NC(=O)[C@H](CCCCN)NC(=O)CNC(=O)[C@H](CC(N)=O)NC(=O)[C@H]([C@@H](C)CC)NC2=O)C(C)C [BmKTX-D33H] (H-VGINVKCKHSGQCLKPCKDAGMRFGKCINGKCHCTPK-OH; disulfide 7-27, 13-32, 17-34; N-terminus and C-terminus assumed), the “sensitivity of KCa3.1 channel” value (KCa3.1) was “much less sensitive”, the “inhibition of Kv1.1 channel currents” value (Kv1.1) was “about 46.6% ± 2.0%” and the “sensitivity of Kv11.1 channel” value (Kv11.1) was “much less sensitive”. The “potency on the Kv1.3 channel compared with wild-type BmKTX” value (Kv1.3 channel [1]; compared to wild-type BmKTX) was “increased potency (as compared to wild-type BmKTX)”, the IC50 (Kv1.3 channel [1]) was 0.0154 nM and the “inhibition of Kv1.3 currents in CD3^+ T cells” value ([2]; 1 nM) was 63.3% ± 2.9%. For the same molecule, the “inhibition of Kv1.3 currents in CD3^+ T cells” value ([2]; 10 nM) was 90.7% ± 2.1%, the “proliferation (growth) of Jurkat cells” value (Jurkat cells [3]) was “significantly inhibited; also recorded: Proliferation of activated Jurkat cells was suppressed” and the “IFN-γ, TNF-α and IL-2 secretion of human T cells” value (CD3^+ T cells [4]) was “robust dose-dependent reduction”. The IC50 (Jurkat cells [5]; 33 h) was 23.9 ± 20.1 nM, the “IL-2 expression of Jurkat cells” value (Jurkat cells [5]; stimulated by PMA + ION, ELISA) was “significantly reduced” and the “sensitivity of Kv1.7 channel” value (Kv1.7) was “much less sensitive”. For the same molecule, the “proliferation (growth) of CD3^+ cells” value (CD3^+ T cells [6]) was “suppressed the growth of CD3^+ cells; also recorded: Suppression of cytokine production and in vitro proliferation”, the “DTH response, change of ear thickness” value (Lewis rats) was “significantly improved the delayed-type hypersensitivity (DTH) responses; also recorded: changes of ear thickness were significantly reduced; also recorded: dramatically reduced the in vivo DTH responses” and the “sensitivity of Kv1.2 channel” value (Kv1.2) was “much less sensitive”. The “selectivity towards the Kv1.3 channel as compared to other K^+ channels” value (Kv1.3 channel [7]) was “more than 1000 fold”, the “sensitivity of KCa2.3 channel” value (KCa2.3) was “much less sensitive” and the “inhibition of Kv1.3 channel currents” value (Kv1.3 channels) was 56.0% ± 2.0%. For the same molecule, the “sensitivity of KCa2.2 channel” value (KCa2.2) was “much less sensitive”.
